Where two headings read alike, the source gives them in different places.
Test system: human ovarian cancer cell line A2780
Assay: Growth inhibition assay (CellTiter 96 Non-Rad Cell Proliferation Assay)
Type: cell-based
Conditions: for efficacy compared with SHetA2 / IC50 compared with SHetA2: comparison in words; for IC50 compared with SHetA2: 'exceeded' = lower IC50 in Table 1
Procedure: To illustrate the general activity of the compounds inhibiting growth of human […] ovarian cancer cells, selected compounds were synthesized and evaluated. The compounds were dissolved in DMSO at a concentration of 0.01 M. The human ovarian cancer cell line A2780 was plated in 96-well tissue culture dishes at a concentration of 3000 cells per well in RPMI medium supplemented with 10% fetal bovine serum and a mixture of antibiotics and antimycotics. The next day, the cultures were treated in triplicate with compound concentrations ranging from 2 μM to 8 μM increments. For compound 12, additional experiments were performed with concentrations of 10 μM and a series of two-fold dilutions to 156 nM. Control cultures were treated with DMSO solvent only. After 72 h of incubation, the […] 96® Non-Rad Cell Proliferation Assay (Promega) was used to quantify the remaining metabolically living cells. After subtracting blank values, the optical density (OD) readouts of the assay for the treated cultures were normalized with the average OD of the control cultures. For each compound, the experiment was repeated at least once, resulting in a minimum of 6 dose-response curves. For SHetA2, 24 response curves were available for statistical fitting parameters. A custom program was written in GNU Octave, a free software compatible with Matlab, to fit the dose-response curves with a four-parameter sigmoid function, extracting the IC50 and efficacy (the maximal % growth inhibition) parameters.
To illustrate the useful biological activity of these chroman-substituted and tetrahydroquinoline-substituted heteroarotinoids, the compounds were screened against human […] ovarian cancer cells.

[1] = Homo sapiens, A2780, Table 3, 14 series (thiochroman), A2780
[2] = Homo sapiens, A2780, Table 3, 14 series, A2780, read-out: % Efficacy
[3] = Homo sapiens, A2780, 72 h, Table 1, chroman-containing series
[4] = Homo sapiens, A2780, 72 h, Table 1, maximal % growth inhibition, A2780, 72 h, read-out: Efficacy

Structure (SMILES)	IC50 [1]	Emax [2]	efficacy compared with SHetA2 (A2780)	also measured
CC1(C)CC(C)(C)c2cc(NC(=S)NCc3ccc(O)cc3)ccc2S1 [Compound 14p, 1-(4-Hydroxybenzyl)-3-(2,2,4,4-tetramethylthiochroman-6-yl)thiourea]	3.23 ± 0.49 µM	56.8 ± 3.3%	–	–
CCC1(CC)CC(C)(C)Oc2ccc(NC(=O)Nc3ccc([N+](=O)[O-])cc3)cc21 [Compound 7c, 1-(4,4-Diethyl-2,2-dimethylchroman-6-yl)-3-(4-nitrophenyl)urea]	–	–	exceeded the efficacy of SHetA2	IC50 [3]: 2.05 µM; Emax [4]: 93.6%; IC50 compared with SHetA2 (A2780): exceeded
CC1(C)CC(C)(C)c2cc(NC(=O)Nc3ccc(C#N)cc3)ccc2S1 [Compound 14c, 1-(4-Cyanophenyl)-3-(2,2,4,4-tetramethylthiochroman-6-yl)urea]	3.93 ± 0.03 µM	93.3 ± 0.1%	exceeded that of SHetA2 in efficacy	–
CC1(C)CC(C)(C)c2cc(NC(=O)Nc3ccc(OC(F)(F)F)cc3)ccc2S1 [Compound 14b, 1-(2,2,4,4-Tetramethylthiochroman-6-yl)-3-(4-(trifluoromethoxy)phenyl)urea]	1.86 ± 0.09 µM	95.6 ± 0.4%	exceeded that of SHetA2 in efficacy	–
CC1(C)CC(C)(C)c2cc(NC(=S)Nc3ccc(C(F)(F)F)cc3)ccc2S1 [Compound 14e, 1-(2,2,4,4-Tetramethylthiochroman-6-yl)-3-(4-(trifluoromethyl)phenyl)thiourea]	2.86 ± 0.29 µM	95.9 ± 0.6%	exceeded that of SHetA2 in efficacy	–
CC1(C)CC(C)(C)c2cc(NC(=S)NCc3ccccc3)ccc2S1 [Compound 14j, 1-Benzyl-3-(2,2,4,4-tetramethylthiochroman-6-yl)thiourea]	3.03 ± 0.47 µM	85.6 ± 0.6%	exceeded that of SHetA2 in efficacy	–
CCOC(=O)c1ccc(NC(=S)Nc2ccc3c(c2)C(C)(C)CC(C)(C)O3)cc1 [Compound 2b, Ethyl 4-(3-(2,2,4,4-Tetramethylchroman-6-yl)thioureido)benzoate]	–	–	–	IC50 [3]: 4.3 µM; Emax [4]: 26%
CC1(C)CC(C)(C)c2cc(NC(=S)NNC(=O)c3ccccc3)ccc2S1 [Compound 14r, 2-Benzoyl-N-(2,2,4,4-tetramethylthiochroman-6-yl)hydrazine-1-carbothioamide]	0.82 ± 0.21 µM	67.9 ± 2.6%	–	–
CC1(C)CC(C)(C)c2cc(NC(=S)Nc3ccc(OC(F)(F)F)cc3)ccc2S1 [Compound 14f, 1-(2,2,4,4-Tetramethylthiochroman-6-yl)-3-(4-(trifluoromethoxy)phenyl)thiourea]	3.51 ± 0.07 µM	95.3 ± 0.4%	exceeded that of SHetA2 in efficacy	–
CC1(C)CC(C)(C)c2cc(NC(=S)NCc3ccc(C(F)(F)F)cc3)ccc2S1 [Compound 14n, 1-(2,2,4,4-Tetramethylthiochroman-6-yl)-3-(4-(trifluoromethyl)benzyl)thiourea]	4.82 ± 0.41 µM	95.3 ± 0.3%	exceeded that of SHetA2 in efficacy	–
CC1(C)CC(C)(C)c2cc(NC(=S)NNC(=O)c3ccc(OC(F)(F)F)cc3)ccc2S1 [Compound 14t, N-(2,2,4,4-Tetramethylthiochroman-6-yl)-2-(4-(trifluoromethoxy)benzoyl)hydrazine-1-carbothioamide]	3.6 ± 0.18 µM	57.4 ± 0.4%	–	–
CC1(C)CC(C)(C)c2cc(NC(=S)NCCc3ccccc3)ccc2S1 [Compound 14k, 1-Phenethyl-3-(2,2,4,4-tetramethylthiochroman-6-yl)thiourea]	3.19 ± 0.47 µM	88.2 ± 0.3%	exceeded that of SHetA2 in efficacy	–
CC1(C)CC(C)(C)c2cc(NC(=S)NCc3ccc([N+](=O)[O-])cc3)ccc2S1 [Compound 14m, 1-(4-Nitrobenzyl)-3-(2,2,4,4-tetramethylthiochroman-6-yl)thiourea]	4.7 ± 0.11 µM	94.5 ± 0.6%	exceeded that of SHetA2 in efficacy	–
CC1(C)CC(C)(C)c2cc(NC(=S)NNc3ccccc3)ccc2S1 [Compound 14q, 2-Phenyl-N-(2,2,4,4-tetramethylthiochroman-6-yl)hydrazine-1-carbothioamide]	7.03 ± 0.31 µM	63.6 ± 3.7%	–	–
CC1(C)CCOc2ccc(NC(=O)Nc3ccc([N+](=O)[O-])cc3)cc21 [Compound 5a, 1-(4-Nitrophenyl)-3-(4,4-dimethylchroman-6-yl)urea]	–	–	–	IC50 [3]: 6.7 µM; Emax [4]: 74%
CC1(C)CC(C)(C)c2cc(NC(=S)Nc3ccc(C(N)=O)cc3)ccc2S1 [Compound 14g, 4-(3-(2,2,4,4-Tetramethylthiochroman-6-yl)thioureido)benzamide]	3.53 ± 0.12 µM	64.2 ± 1.8%	–	–
CC1(C)CC(C)(C)c2cc(NC(=S)NCc3ccc(Cl)cc3)ccc2S1 [Compound 14l, 1-(4-Chlorobenzyl)-3-(2,2,4,4-tetramethylthiochroman-6-yl)thiourea]	2.98 ± 0.44 µM	89.4 ± 2.8%	exceeded that of SHetA2 in efficacy	–
CCC1(CC)CC(CC)(CC)c2cc(NC(=O)Nc3ccc([N+](=O)[O-])cc3)ccc2O1 [Compound 8b, 1-(4-Nitrophenyl)-3-(2,2,4,4-tetraethylchroman-6-yl)urea]	–	–	exceeded the efficacy of SHetA2	IC50 [3]: 2.09 µM; Emax [4]: 91.4%; IC50 compared with SHetA2 (A2780): exceeded
CC1(C)CC[N+](C)(C)c2ccc(NC(=O)Nc3ccc([N+](=O)[O-])cc3)cc21 [Compound 10, 1,1,4,4-Tetramethyl-6-(3-(4-nitrophenyl)ureido)-1,2,3,4-tetrahydroquinolin-1-ium Iodide]	–	–	–	IC50 (Homo sapiens, A2780, 72 h, Table 2, tetrahydroquinoline-containing members): 6.6 µM; Emax (Homo sapiens, A2780, 72 h, Table 2, maximal % growth inhibition, A2780, 72 h, read-out: Efficacy): 22%
CC1(C)CC(C)(C)c2cc(NC(=O)Nc3ccc(C(F)(F)F)cc3)ccc2S1 [Compound 14a, 1-(2,2,4,4-Tetramethylthiochroman-6-yl)-3-(4-(trifluoromethyl)phenyl)urea]	3.79 ± 0.05 µM	93.3 ± 0.1%	exceeded that of SHetA2 in efficacy	–
CCC1(CC)CC(C)(C)c2cc(NC(=S)Nc3ccc([N+](=O)[O-])cc3)ccc2O1 [Compound 6a, 1-(2,2-Diethyl-4,4-dimethylchroman-6-yl)-3-(4-nitrophenyl)thiourea]	–	–	exceeded the efficacy of SHetA2	IC50 [3]: 2.9 µM; Emax [4]: 93.9%; IC50 compared with SHetA2 (A2780): exceeded
CC1(C)CC(C)(C)c2cc(NC(=S)Nc3ccc(Cl)cc3)ccc2S1 [Compound 14d, 1-(4-Chlorophenyl)-3-(2,2,4,4-tetramethylthiochroman-6-yl)thiourea]	3.17 ± 0.25 µM	91.9 ± 0.5%	exceeded that of SHetA2 in efficacy	–
CC1(C)CC(C)(C)c2cc(NC(=S)Nc3ccc([N+](=O)[O-])cc3)ccc2O1 [Compound 2a, 1-(4-Nitrophenyl)-3-(2,2,4,4-tetramethylchroman-6-yl)thiourea]	–	–	exceeded the efficacy of SHetA2	IC50 [3]: 6.97 µM; Emax [4]: 87%
CC1(C)CCOc2ccc(NC(=S)Nc3ccc([N+](=O)[O-])cc3)cc21 [Compound 4a, 1-(4-Nitrophenyl)-3-(4,4-dimethylchroman-6-yl)thiourea]	–	–	–	IC50 [3]: 6.4 µM; Emax [4]: 19%
CC1(C)CC(C)(C)c2cc(NC(=S)NNC(=O)c3ccc([N+](=O)[O-])cc3)ccc2S1 [Compound 14s, 2-(4-Nitrobenzoyl)-N-(2,2,4,4-tetramethylthiochroman-6-yl)hydrazine-1-carbothioamide]	3.15 ± 0.19 µM	43.3 ± 2.9%	–	–
CC1(C)CCSc2ccc(NC(=S)Nc3ccc([N+](=O)[O-])cc3)cc21 [Compound 14v, 1-(4,4-dimethyl-6-yl)-3-(4-nitrophenyl)thiourea]	4.01 ± 0.19 µM	93.5 ± 1.7%	–	–
CC1(C)CC(C)(C)c2cc(NC(=S)NNC(=O)c3cc(C(F)(F)F)cc(C(F)(F)F)c3)ccc2S1 [Compound 14u, 2-(3,5-Bis(trifluoromethyl)benzoyl)-N-(2,2,4,4-tetramethylthiochroman-6-yl)hydrazine-1-carbothioamide]	4 ± 0.12 µM	61.4 ± 2.9%	–	–
CCC1(CC)CC(CC)(CC)c2cc(NC(=S)Nc3ccc([N+](=O)[O-])cc3)ccc2O1 [Compound 8a, 1-(4-Nitrophenyl)-3-(2,2,4,4-tetraethylchroman-6-yl)thiourea]	–	–	exceeded the efficacy of SHetA2	IC50 [3]: 4.6 µM; Emax [4]: 94%
CN1c2ccc(NC(=S)Nc3ccc(C(F)(F)F)cc3)cc2C(C)(C)C(=O)C1(C)C [Compound 11d]	–	–	–	IC50 (Table 2, tetrahydroquinoline-containing members, A2780, 72 h): 3.9 µM; Efficacy (Table 2, maximal % growth inhibition, A2780, 72 h): 90.8 (±2.0) %
COc1ccc(CNC(=S)Nc2ccc3c(c2)C(C)(C)CC(C)(C)S3)cc1 [Compound 14o, 1-(4-Methoxybenzyl)-3-(2,2,4,4-tetramethylthiochroman-6-yl)thiourea]	3.26 ± 0.43 µM	89.6 ± 0.9%	exceeded that of SHetA2 in efficacy	–

Reference: patent US11993573B2, “Chromane-substituted, tetrahydroquinoline-substituted and thiochromane-substituted heteroarotinoids as anti-cancer agents” (THE BOARD OF REGENTS FOR OKLAHOMA STATE UNIVERSITY, priority 2018, dated 2024)
